{"source": "patent US20200360647A1", "about": "“Use Of Inhaled Nitric Oxide For The Improvement Of Right And/Or Left Ventricular Function” (Bellerophon Pulse Technologies LLC, priority 2017, published 2020)", "format_in_all_cases": "in vivo, human", "key": {"[1]": {"system": "subjects with PH-IPF on LTOT", "assay": "HRCT blood vessel volume, acute iNO, PH-IPF study (IK-7002-COPD-006)", "details": "iNO 75 mcg/kg IBW/hr, individual patients (Patient 1, Patient 2)", "excerpt": "(§1) This study was an exploratory, three-part, clinical study to assess the effect of pulsed iNO on functional pulmonary imaging parameters in subjects with PH-COPD on LTOT (Part 1) PH-IPF on LTOT (Part 2 and Part 3) (IK-7002-COPD-006; NCT02267655). The objective of this exploratory study was to examine the utility of high resolution computed tomography (HRCT) to measure changes in functional respiratory imaging parameters as a function of short term iNO administration using a pulsed NO delivery device in subjects with PH-IPF (Part 2 and Part 3) on LTOT. The primary endpoint in this exploratory study is the change from baseline in lobar blood volume at total lung capacity (TLC) after dosing with pulsed iNO (Part 1), iNO or Placebo (Part 2a) and after 4 weeks iNO treatment (Part 3b) as measured by HRCT.\nThis was an exploratory clinical study to evaluated the utility of HRCT to measure the pharmacodynamic effects of short term pulsed administration of iNO using a pulsed NO delivery device in subjects with PH-IPF (Part 2 and Part 3) on LTOT. […]\n(§2) The 2 subjects enrolled in Part 3a each received three different doses of iNO utilizing NO cylinder concentration (4,880 ppm) at a dose of 5 mcg/kg IBW/hr, 10 mcg/kg IBW/hr and 30 mcg/kg IBW/hr, all with LTOT. For each dose, the change in PAP pressure and the change in cardiac output was evaluated by RHC. […]"}, "[2]": {"system": "subjects with PH-IPF on LTOT", "assay": "sPAP by echocardiogram, acute iNO, PH-IPF study", "details": "iNO 75 mcg/kg IBW/hr, individual patients (Patient 1, Patient 2)", "excerpt": "as §1, with “HRCT. […]” for “HRCT.”\nas §2\nDuring the chronic phase, the vasodilation and the hemodynamics were assessed. […] Both the acute and chronic phases evaluated iNO doses of 30 and 75 mcg/kg IBW/hr."}, "[3]": {"system": "subjects with PH-IPF on LTOT", "assay": "TAPSE (RV function) during chronic pulsed iNO therapy, PH-IPF study", "excerpt": "(§3) Maintenance and/or improvements in RV function can be assessed by many echocardiographic measurements. One such quantitative approach to assess RV function is the measurement of the TAPSE. The TAPSE estimates RV systolic function by measuring the level of systolic excursion of the lateral tricuspid valve annulus towards the apex. An excellent correlation between the TAPSE and RV ejection fraction as assessed by radionuclide angiography has previously been established and the approach appears reproducible and proven to be a strong predictor of prognosis in heart failure. [Reference: Heart. 2006 April; 92(Suppl 1): i19-i26.]\nThe secondary endpoints of Part 2a (acute; placebo vs. iNO 75 mcg/kg IBW/hr) were change in Borg CR10 leg fatigue and dyspnea scale, changes in breathing questionnaire and changes in right ventricular and left ventricular function.\nOne patient from Part 2a entered into Part 2b. During Part 2b patient receive iNO utilizing NO cylinder concentration (4,880 ppm) at a dose of 75 mcg/kg IBW/hr during 4 weeks for at least 12 hours/day.\nThe 2 patients from Part 3a entered Part 3b. During Part 3b, patients received iNO utilizing NO cylinder concentration (4,880 ppm) at a dose of 30 mcg/kg IBW/hr.\nSubject 1 received pulsed iNO at a dose of 75 mcg/kg IBW/hr for 4 weeks, and Subject 3 received pulsed iNO at a dose of 30 mcg/kg IBW/hr for 4 weeks."}, "[4]": {"system": "subjects with PH-IPF on LTOT", "assay": "Safety and tolerability of iNO dose, PH-IPF study", "description": "The safety endpoints in this study were: • a. Incidence and severity of treatment emergent adverse events (AEs), including those related to device deficiency; • b. Incidence of MetHb levels>7.0%; • c. New symptoms that may be due to rebound PH associated with a temporal acute withdrawal of investigational study drug (i.e., symptoms occurring within 20 minutes of acute withdrawal and including those associated with investigational medical device malfunction or failure): systemic arterial oxygen desaturation, hypoxemia, bradycardia, tachycardia, systemic hypotension, near-syncope, syncope, ventricular fibrillation, and/or cardiac arrest; • d. New or worsening symptoms of left heart failure or pulmonary edema; and • e. Any decrease in systemic oxygenation measured by oxygen saturation of arterial blood by pulse oximetry (SpO2), i.e., hypoxia or oxygen saturation decrease, deemed by the Investigator to be clinically significant.\nThe initial protocol intended that 4 subjects would be enrolled in Part 2. […] It was decided to temporarily stop recruitment. One of the 2 subjects completed 4 weeks of chronic use in Part 2b.\nIn the amendment a total of 2 subjects participated in Part 3. The dose in Part 3 was lower than in Part 2 and each subject was titrated to the optimum dose as determined by the investigator. […] The dose was monitored with a RHC in place. […]"}, "subjects with PH-COPD [5]": {"system": "subjects with PH-COPD", "assay": "HRCT blood vessel volume, acute iNO, PH-COPD study (PULSE-COPD-007)", "details": "individual subjects #1-#7", "excerpt": "(§4) This study is an open label Phase 1 study of iNO therapy in subjects with PH-COPD (PULSE-COPD-007; NCT03135860). The primary outcome of this study is the change in lobar blood volume at total lung capacity with iNO and the change in lobar blood volume with iNO after 4 weeks of treatment with iNO as measured by HRCT.\n(§5) Subjects also had sPAP≥38 mm Hg as measured by echocardiogram, a post-bronchodilatory FEV1/FVC<0.7 and a FEV1<60% predicted. All subjects were at least 40 years old and were current or former smokers with at least 10 pack-years of tobacco cigarette smoking before study entry. All subjects also had been receiving LTOT for at least 3 months for at least 10 hours per day.\n(§6) The PH-COPD subjects received pulsed iNO therapy for 4 weeks for at least 12 hours/day. The iNO was administered utilizing a 4,880 ppm NO cylinder concentration.\n(§7) A further analysis was performed of seven PH-COPD subjects that completed 4 weeks of treatment with iNO at a dose of 30 mcg/kg IBW/hr."}, "subjects with PH-COPD [6]": {"system": "subjects with PH-COPD", "assay": "sPAP by echocardiogram during chronic iNO therapy, PH-COPD study", "excerpt": "as §4, §5, §6\nA further analysis was performed of seven PH-COPD subjects that completed 4 weeks of treatment with iNO at a dose of 30 mcg/kg IBW/hr. […]"}, "subjects with PH-COPD [7]": {"system": "subjects with PH-COPD", "assay": "Six-minute walk distance (6MWD) during chronic iNO therapy, PH-COPD study", "details": "iNO 30 mcg/kg IBW/hr, individual subjects #1-#7", "excerpt": "as §4, §5, §6, §7"}, "subjects with PH-COPD [8]": {"system": "subjects with PH-COPD", "assay": "TAPSE (RV function) during chronic pulsed iNO therapy, PH-COPD study", "set-up": "TAPSE Increase: unit not given beside the values", "excerpt": "as §3, §4, §5, §6\nThese subjects were diagnosed with PH-COPD and received 4 weeks of treatment with iNO at a dose of 30 mcg/kg IBW/hr. The results verify the increase in TAPSE which correlates to RV function."}, "[9]": {"details": "PH-IPF Subject 1, pulsed iNO 75 mcg/kg IBW/hr for 4 weeks, vs baseline"}, "[10]": {"details": "PH-IPF Subject 3, pulsed iNO 30 mcg/kg IBW/hr for 4 weeks, vs baseline"}, "[11]": {"details": "PH-IPF, average of Subject 1 (75) and Subject 3 (30 mcg/kg IBW/hr), 4 weeks, vs baseline"}, "[12]": {"details": "group value, vs baseline 60.3 mm Hg, p=0.02"}, "[13]": {"details": "iNO 30 mcg/kg IBW/hr, 4 weeks vs baseline, individual subjects #1-#7"}, "[14]": {"details": "iNO 30 mcg/kg IBW/hr for 4 weeks, average of four subjects, vs baseline"}, "[15]": {"details": "iNO 30 mcg/kg IBW/hr for 4 weeks, vs baseline, individual subjects (1, 6, 7, 12)"}}, "note": "Several values for one entry are separate records, joined by “and”; a condition that tells them apart may be missing. Equal entries are not always repeated.", "data": [{"compound": "[N]=O", "note": "[iNO, nitric oxide]", "values": [{"measurement": "Acute change in Blood Vessel Volume %", "setting": "[1]", "value": "14.0 ± 4.7% and 34.2 ± 7.6%"}, {"measurement": "Acute Change in sPAP (%)", "setting": "[2]", "value": "−9.3% and −9.7%"}, {"measurement": "TAPSE % Change", "setting": "[3]; [9]", "value": 21, "unit": "%"}, {"measurement": "TAPSE Increase", "setting": "[3]; [9]", "value": 3}, {"measurement": "TAPSE % Change", "setting": "[3]; [10]", "value": 12, "unit": "%"}, {"measurement": "TAPSE Increase", "setting": "[3]; [10]", "value": 4}, {"measurement": "TAPSE % Change, Average", "setting": "[3]; [11]", "value": 15, "unit": "%"}, {"measurement": "TAPSE Increase, Average", "setting": "[3]; [11]", "value": 3}, {"measurement": "TAPSE 4 Week, Average", "setting": "[3]; PH-IPF, average of Subject 1 (75 mcg/kg IBW/hr) and Subject 3 (30 mcg/kg IBW/hr), 4 weeks, baseline 20", "value": 23}, {"measurement": "Safety of dose titration monitored with RHC", "setting": "[4]; 2 PH-IPF subjects of Part 3, titrated 5, 10, 30 mcg/kg IBW/hr", "value": "could titrate to iNO at a dose of 30 mcg/kg IBW/hr safely"}, {"measurement": "PAP after discontinuation of iNO", "setting": "[4]; two PH-IPF patients of Part 2, iNO 75 mcg/kg IBW/hr", "value": "sudden increase in PAP after discontinuation"}, {"measurement": "Acute change in Blood Vessel Volume %", "setting": "subjects with PH-COPD [5]", "value": "6.2 ± 1.6% and 3.3 ± 2.1% and 6.6 ± 4.5% and 9.7 ± 3.5% and −1.0 ± 4.0% and 2.7 ± 0.4%"}, {"measurement": "sPAP 4 weeks after iNO therapy was discontinued", "setting": "subjects with PH-COPD [6]; group value (FIG. 6)", "value": 58.0, "unit": "mm Hg"}, {"measurement": "sPAP drop after 4 weeks of iNO therapy", "setting": "subjects with PH-COPD [6]; [12]", "value": 12.0, "unit": "mm Hg"}, {"measurement": "sPAP drop after 4 weeks of iNO therapy (%)", "setting": "subjects with PH-COPD [6]; [12]", "value": 19.9, "unit": "%"}, {"measurement": "sPAP, 4 weeks iNO", "setting": "subjects with PH-COPD [6]; iNO 30 mcg/kg IBW/hr for 4 weeks, individual subjects #1-#7", "value": "69 mm Hg and 37 mm Hg and 40 mm Hg and 74 mm Hg and 30 mm Hg and 34 mm Hg and 54 mm Hg"}, {"measurement": "Change sPAP (mm Hg)", "setting": "subjects with PH-COPD [6]; [13]", "value": "−25 mm Hg and −10 mm Hg (2×) and −15 mm Hg and −4 mm Hg and −12 mm Hg and −8 mm Hg"}, {"measurement": "sPAP % Change", "setting": "subjects with PH-COPD [6]; [13]", "value": "−27% (2×) and −21% and −5% and −25% and −26% and −13%"}, {"measurement": "6MWD Change from Baseline, 2 weeks iNO", "setting": "subjects with PH-COPD [7]; 2 weeks vs baseline", "value": "+135 meters and +79 meters and +15 meters and +35 meters and +25 meters and +57 meters and +32 meters"}, {"measurement": "6MWD, 2 weeks iNO", "setting": "subjects with PH-COPD [7]; 2 weeks", "value": "335 meters and 263 meters and 493 meters and 115 meters and 495 meters and 400 meters and 173 meters"}, {"measurement": "6MWD Change from Baseline, 4 weeks iNO", "setting": "subjects with PH-COPD [7]; 4 weeks vs baseline", "value": "+135 meters and +11 meters and +2 meters and −3 meters and +28 meters and +80 meters and +100 meters"}, {"measurement": "6MWD, 4 weeks iNO", "setting": "subjects with PH-COPD [7]; 4 weeks", "value": "335 meters and 195 meters and 480 meters and 77 meters and 498 meters and 423 meters and 242 meters"}, {"measurement": "TAPSE after iNO therapy was discontinued", "setting": "subjects with PH-COPD [8]; group value, N=5 (FIG. 7)", "value": 19.0}, {"measurement": "TAPSE 4 Week, Average", "setting": "subjects with PH-COPD [8]; iNO 30 mcg/kg IBW/hr for 4 weeks, average of four subjects, baseline 16", "value": 20}, {"measurement": "TAPSE % Change, Average", "setting": "subjects with PH-COPD [8]; [14]", "value": 25, "unit": "%"}, {"measurement": "TAPSE Increase, Average", "setting": "subjects with PH-COPD [8]; [14]", "value": 4}, {"measurement": "TAPSE 4 Week", "setting": "subjects with PH-COPD [8]; iNO 30 mcg/kg IBW/hr for 4 weeks, individual subjects (1, 6, 7, 12)", "value": "14 and 18 (2×) and 28"}, {"measurement": "TAPSE % Change", "setting": "subjects with PH-COPD [8]; [15]", "value": "0% and 67% and 22% and 13%"}, {"measurement": "TAPSE Increase", "setting": "subjects with PH-COPD [8]; [15]", "value": "0 and 7 and 5 and 2"}]}]}
